ChEMBL document CHEMBL3352655, “Synthesis and biological evaluation of norcantharidin derivatives as protein phosphatase-1 inhibitors” (Bioorg Med Chem Lett, 2015)
Calls of active or inactive are those of the source. The rule behind the calls is not given here.

Assays:
HeLa [1] = test: Cytotoxicity against human HeLa cells after 48 hrs by MTT assay; format: functional, cell-based
[2] = (§1) Inhibition of protein phosphatase-1 (unknown origin) using phosphopeptide (Lys-Arg-pThr-Ile-Arg) substrate incubated for 60 mins by colorimetric analysis based serine/threonine assay; set-up: species or system Homo sapiens
HepG2 = test: Cytotoxicity against human HepG2 cells after 48 hrs by MTT assay; format: functional, cell-based; details: HepG2, 48 h
A549 = test: Cytotoxicity against human A549 cells after 48 hrs by MTT assay; format: functional, cell-based; details: A549, 48 h
[3] = Cytotoxicity against human WI38 cells after 48 hrs by MTT assay; format: cell-based; details: WI-38, 48 h
[4] = Partition coefficient, log P of the compound; format: physicochemical; details: octanol/water
[5] = Cytotoxicity against human HCT8 cells after 48 hrs by MTT assay; format: functional, cell-based; details: HCT-8, 48 h
HeLa [6] = test: Induction of nuclear condensation in human HeLa cells at 5 uM after 24 hrs by DAPI staining based immunofluorescence assay; format: functional, cell-based
Calf thymus DNA = test: Binding affinity to calf thymus DNA assessed as reduction in fluorescence intensity of compound-DNA complex at 1 uM by fluorescence spectroscopy; format: nucleic-acid assay; details: Bos taurus
Homo sapiens = organism: Homo sapiens; test: as §1
HeLa [7] = test: Induction of cell shrinkage in human HeLa cells at 5 uM after 24 hrs by DAPI staining based immunofluorescence assay; format: functional
HeLa [8] = test: Inhibition of microtubule formation in human HeLa cells at 5 uM after 24 hrs by DAPI staining based immunofluorescence assay; format: functional, cell-based
HeLa [9] = test: Induction of nuclear fragmentation in human HeLa cells at 5 uM after 24 hrs by DAPI staining based immunofluorescence assay; format: functional, cell-based

## O=C1[C@@H]2[C@H](C(=O)N1c1ccc(S(=O)(=O)N3CCN(c4ccc(F)cc4)CC3)cc1)[C@@H]1CC[C@H]2O1
HeLa [1]
  IC50: 18.6 µM
[2]
  IC50: 2.3 µM
HepG2
  IC50: 25.6 µM
A549
  IC50: 25.8 µM
[3]
  IC50: 51.8 µM
[4]
  logP: 1.4
[5]
  IC50: 32.1 µM

## CCOC(=O)Cc1csc(NC(=O)C2C(C(=O)O)[C@H]3CC[C@@H]2O3)n1 (stereo not given in full)
HeLa [1]
  IC50: > 100 µM
HepG2
  IC50: > 100 µM
A549
  IC50: > 100 µM
[3]
  IC50: > 100 µM
[4]
  logP: 0.8
[5]
  IC50: > 100 µM

## CCN1CCN(S(=O)(=O)c2ccc(NC(=O)C3C(C(=O)O)[C@H]4CC[C@@H]3O4)cc2)CC1 (stereo not given in full)
HeLa [1]
  IC50: 15.7 µM
HepG2
  IC50: 20.2 µM
A549
  IC50: 28.4 µM
[3]
  IC50: 73.1 µM
[4]
  logP: 0.4
[5]
  IC50: 27.4 µM

## O=C(Nc1ccc(S(=O)(=O)NC2CC2)cc1)C1C(C(=O)O)[C@H]2CC[C@@H]1O2 (stereo not given in full)
HeLa [1]
  IC50: 20.9 µM
HepG2
  IC50: 26.2 µM
A549
  IC50: 34.3 µM
[3]
  IC50: 52.1 µM
[4]
  logP: 0.2
[5]
  IC50: 28.3 µM

## O=C(Nc1ccc(S(=O)(=O)N2CCN(c3ccc(F)cc3)CC2)cc1)C1C(C(=O)O)[C@H]2CC[C@@H]1O2 (single isomer, unassigned)
HeLa [6]
  Activity: Active
HeLa [1]
  IC50: 6.3 µM
Calf thymus DNA
  Activity: Active
Homo sapiens
  inhibition: Dose-dependent effect
[2]
  IC50: 0.2 µM
HepG2
  IC50: 14.4 µM
A549
  IC50: 18.4 µM
[3]
  IC50: 50.2 µM
HeLa [7]
  Activity: Active
HeLa [8]
  inhibition: Active
[4]
  logP: 0.6
[5]
  IC50: 16.6 µM
HeLa [9]
  Activity: Active

## O=C1[C@@H]2[C@H](C(=O)N1c1ccc(S(=O)(=O)NC3CCCC3)cc1)[C@@H]1CC[C@H]2O1
HeLa [1]
  IC50: 20.7 µM
HepG2
  IC50: 23.5 µM
A549
  IC50: 32.5 µM
[3]
  IC50: 40.3 µM
[4]
  logP: 1.1
[5]
  IC50: 32.8 µM

## O=C1[C@@H]2[C@H](C(=O)N1c1ccc(S(=O)(=O)N3CCOCC3)cc1)[C@@H]1CC[C@H]2O1
HeLa [1]
  IC50: 16.3 µM
HepG2
  IC50: 28.7 µM
A549
  IC50: 39.2 µM
[3]
  IC50: 52.1 µM
[4]
  logP: 0.9
[5]
  IC50: 43.5 µM

## O=C(Nc1ccc(S(=O)(=O)N2CCOCC2)cc1)C1C(C(=O)O)[C@H]2CC[C@@H]1O2 (stereo not given in full)
HeLa [1]
  IC50: 17.2 µM
HepG2
  IC50: 19.3 µM
A549
  IC50: 24.2 µM
[3]
  IC50: 48.8 µM
[4]
  logP: 0.4
[5]
  IC50: 31.3 µM

## O=C(Nc1ccc(S(=O)(=O)NC2CCCCC2)cc1)C1C(C(=O)O)[C@H]2CC[C@@H]1O2 (stereo not given in full)
HeLa [1]
  IC50: 18.7 µM
HepG2
  IC50: 22.5 µM
A549
  IC50: 36.2 µM
[3]
  IC50: 62.5 µM
[4]
  logP: 0.2
[5]
  IC50: 31 µM

## O=C(Nc1ccc(S(=O)(=O)NC2CCCC2)cc1)C1C(C(=O)O)[C@H]2CC[C@@H]1O2 (stereo not given in full)
HeLa [1]
  IC50: 17.6 µM
HepG2
  IC50: 22.3 µM
A549
  IC50: 20.1 µM
[3]
  IC50: 59 µM
[4]
  logP: 0.2
[5]
  IC50: 30.2 µM

## O=C1OC(=O)C2C3CCC(O3)C12 (stereo not given) [DEMETHYL-CANTHARIDIN]
HeLa [1]
  IC50: 12.4 µM
[2]
  IC50: 2.6 µM
HepG2
  IC50: 24.7 µM
A549
  IC50: 12.1 µM
[3]
  IC50: 26.7 µM
[4]
  logP: 0.7
[5]
  IC50: 28.4 µM
